Source: PubChem BioAssay AID449750 (Broad Institute, 2010)
“And” between values parts separate entries of the source, which are not always exact repeats. Identical values can stand only once. The source made the active and inactive calls. No rule for the calls is given here.

Assay: non-covalent RecA intein splicing inhibitors, dose response, biochemical, cell-free, fluorescence, secondary screen (AID 449750)

SMILES	AC50
O=C1/C(=C/c2ccc(F)cc2)SC(=S)N1CC(=O)N1CCCCC1c1cccnc1 (centres undefined)	38.4 µM
CC(=O)NCCn1c(SCc2ccccc2C)nc2ccccc2c1=O	> 38 µM (inactive)
C/C(CC(=O)Nc1cc(C)ccn1)=N\NC(=O)c1ccccc1C	> 38 µM (inactive)
CCOC(=O)C1=C(C)NC(SCc2cc(=O)[nH][nH]2)=C(C#N)C1c1cccs1 (centres undefined)	4.69 µM
CCN(CC)c1ccc2c(c1)CCCN2	> 12 µM (inactive)
CCCCCc1cc(=O)oc2c(C(CCN3CCCC(C)C3)c3ccc4c(c3)OCO4)c(OC)cc(OC)c12 (centres undefined)	10.5 µM
CCc1ccc(S(=O)(=O)/N=C2\C=C(Nc3cccc(C(=O)O)c3)C(=O)c3ccccc32)cc1	0.353 µM
Oc1ccc(/C=N/Nc2ccc(C(F)(F)F)cn2)c(O)c1	> 38 µM (inactive)
O=c1c(Cl)nc2cc(Cl)ccc2n1CCNc1ncc(C(F)(F)F)cc1Cl	> 38 µM (inactive)
Cn1c(SCC(=O)NCC2CCCO2)ncc(C(=O)Nc2ccccc2)c1=O (centres undefined)	> 38 µM (inactive)
Cc1cc(C(=O)c2ccc(C(C)(C)C)cc2)c(NC(=O)CCl)s1	9.8 µM
O=C(O)CN1C(=O)/C(=C\c2cccc(OC(=O)c3ccco3)c2)SC1=S	> 38 µM (inactive)
CCOc1ccc2c(c1)C(NC(C)=O)C(=O)N2CCN1CCOCC1 (centres undefined)	34.2 µM
COc1ccc(C2NC(=O)NC3=C2CCc2ccccc23)cc1 (centres undefined)	> 38 µM (inactive)
COc1ccc(C(=O)Nc2ccncc2)cc1[N+](=O)[O-]	> 38 µM (inactive)
c1ccc(CCNCc2cccs2)cc1	> 38 µM (inactive)
CCOC(=O)C(C#N)C(c1cccnc1)c1c(C)[nH][nH]c1=O (centres undefined)	> 38 µM (inactive)
O=C(Oc1ccc(Br)cc1C(=S)N1CCCCC1)c1cc([N+](=O)[O-])cc([N+](=O)[O-])c1	> 38 µM (inactive)
Cc1ccc(-c2nc(CN3CCCC(C(=O)N4CCOCC4)C3)c(C)o2)cc1 (centres undefined)	> 38 µM (inactive)
CC(C)CNC(=O)c1c(N)n(Cc2ccc3c(c2)OCO3)c2nc3ccccc3nc12	5.59 µM
Cc1[nH]n(-c2ccccc2)c(=O)c1/C=N/NC(=O)c1ccc(O)cc1O	> 38 µM (inactive)
Cn1[nH]c(CSc2ccc(Cl)cc2)cc1=O	13.3 µM
Cc1ccc2nc(N/N=C\c3ccc([N+](=O)[O-])o3)nc(-c3ccccc3)c2c1	> 38 µM (inactive)
O=C(CCCN1C(=O)/C(=C\c2cccs2)SC1=S)Nc1ccc(O)cc1	> 38 µM (inactive)
O=C(Cc1cc(=O)[nH][nH]1)N/N=C/C(Cl)=C/c1ccccc1	19.8 µM and 11.1 µM

SMILES	AC50
Cc1ccc(-n2[nH]c(C)c(/C=N/NC(=O)c3ccc([N+](=O)[O-])cc3)c2=O)c(C)c1	5.27 µM
Cc1cccc(CS(=O)(=O)c2ncc(Cl)c(C(=O)NCc3ccc4c(c3)OCO4)n2)c1	> 38 µM (inactive)
O=C(CCl)N1N=C(c2ccco2)CC1c1ccco1 (centres undefined)	19.1 µM
CCc1ccc(S(=O)(=O)/N=C2\C=C(Nc3ccc(C(=O)O)cc3)C(=O)c3ccccc32)cc1	0.348 µM
COc1cc(C2C(C#N)=C(N)Oc3n[nH]c(C)c32)cc2c1OCO2 (centres undefined)	8.43 µM
COc1ccc(Nc2ccc(OC)cc2)cc1	> 38 µM (inactive)
Cc1ccccc1N(Cc1cc(=O)[nH]c2ccccc12)C(=O)CCl	8.32 µM
CCc1ccc(C2C(C#N)=C(N)C(C#N)(C#N)C3=CCC(C(C)(C)C)CC32)cc1 (centres undefined)	> 38 µM (inactive)
Cc1ccc(C2C(C#N)=C(N)Oc3n[nH]c(-c4cccs4)c32)s1 (centres undefined)	3.32 µM
CN1N=C(C(C)(C)C)CC1=O	> 38 µM (inactive)
Cc1[nH][nH]c(=O)c1C(c1ccc2c(c1)OCO2)c1c(C)[nH][nH]c1=O	19 µM
COc1ccc(/C=C/C(=O)c2ccc(O)cc2)cc1COc1ccc(F)cc1	> 38 µM (inactive)
CCCCCn1c(NC(=O)c2ccco2)c(S(=O)(=O)c2ccc(C)cc2)c2nc3ccccc3nc21	> 38 µM (inactive)
CC(CCn1cccn1)NC(=O)CCc1nnc(CCc2ccccc2)o1 (centres undefined)	> 38 µM (inactive)
Nc1cc2nn(-c3ccccc3)nc2cc1Cl	7.05 µM
CCc1[nH]nc2c1C(c1cccnc1)C(C#N)=C(N)O2 (centres undefined)	> 38 µM (inactive)
O=C(O)CC1OCC=C2CN3CCC45C6=CC(=O)C(=O)C([N+](=O)[O-])=C6NC4C1C2CC35 (centres undefined)	32.5 µM
O=C1CC(CSc2ccc(Cl)cc2)=NN1	25 µM
Cc1nc2ccccc2c2c1C(=O)N(Cc1cccnc1)C2=O	> 38 µM (inactive)
CC(C)c1[nH]nc2c1C(c1cccc(OC(=O)N3CCOCC3)c1)C(C#N)=C(N)O2 (centres undefined)	> 38 µM (inactive)
COc1ccc(/C=C2/C(=O)N(c3ccccc3)N=C2C)cc1Br	5.66 µM
Cn1c(SCC(=O)NCC2CCCO2)ncc(C(=O)Nc2ccc(F)cc2)c1=O (centres undefined)	7.58 µM
Cc1ccc2nc(/C(C#N)=C\c3ccc([N+](=O)[O-])o3)[nH]c2c1	> 38 µM (inactive)
Cc1ccc(S[C@@H](CCN2CC[C@H](C)CCC2=O)c2ccccc2)cc1	15.2 µM
CC1CCCN(C2=C(Cl)C(=O)N(c3cccc(Cl)c3)C2=O)C1 (centres undefined)	> 38 µM (inactive)

SMILES	AC50
Cc1cc(=O)n(-c2ccc(C(=O)O)cc2)[nH]1	1.92 µM
O=C1NC(c2ccc(-c3ccccc3[N+](=O)[O-])o2)C(C(=O)c2ccc(Cl)cc2)C(O)(C(F)(F)F)N1 (centres undefined)	17 µM
O=C1C(Cl)=C(NCc2cccnc2)C(=O)c2ccccc21	13.6 µM
COc1ccc(/C(=N/OC(C)=O)c2nccc3cc(OC)c(OC)cc23)cc1OC	> 38 µM (inactive)
O=C(CCl)N1c2ccccc2OCC1c1ccccc1 (centres undefined)	12.7 µM
Cc1ccc(Cn2ncc(Cl)c(Cl)c2=O)cc1	22 µM
O=C1C(Cl)=C(N2CCOCC2)C(=O)N1c1ccccc1Cl	> 38 µM (inactive)
O=C1C2=C(NC(=S)NC2c2ccc(Cl)cc2)NC(c2ccc(Cl)cc2)N1c1ccc(Cl)cc1 (centres undefined)	4.62 µM
CN(C)c1ncc(C2=C(Cl)C(=O)C(N3CCCC3)=C(Cl)C2=O)s1	14 µM
COc1ccc(/C=N/NC(=O)c2nn(-c3ccccc3)c(=O)c3c(N)scc23)cc1	> 38 µM (inactive)
Brc1ccc(Cn2c(-c3ccc(Br)o3)nc3ccccc32)o1	23.2 µM
COc1cc(Cc2nccc3cc(OC)c(OC)cc23)c(S(=O)(=O)O)cc1OC	> 38 µM (inactive)
CCOC(=O)c1c(NC(=O)CCl)sc(CN(C)C)c1-c1ccccc1	20.4 µM
CCOC(=O)C1=C(c2ccccc2)O/C(=C(/C#N)C(F)(F)F)S1	> 38 µM (inactive)
O=[N+]([O-])c1cc(Br)c(Nc2ccccc2)c([N+](=O)[O-])c1	7.02 µM
CC1=NNC(=O)C1Cc1ccccc1C (centres undefined)	> 38 µM (inactive)
Cc1[nH]n(C(C)(C)C)c(=O)c1Sc1ccccc1	> 38 µM (inactive)
CC1=NN(CCC#N)C(=O)/C1=C/c1ccc(N(C)C)cc1	22.4 µM
CCCCc1ccc(NC(=O)CSCc2cc(=O)[nH][nH]2)cc1	27.1 µM
Cc1ccccc1CS(=O)(=O)c1nnc([C@H](Cc2ccccc2)NC(=O)OC(C)(C)C)o1	> 38 µM (inactive)
COc1cc(/C=C2\C(=O)N(CCC#N)N=C2C)ccc1OCC(=O)Nc1ccccc1	8.37 µM
CCn1c(-c2ccccc2)c(C(=O)CCl)c2ccccc21	6.01 µM
COCc1[nH]nc2c1C(c1ccccc1OC)C(C#N)=C(N)O2 (centres undefined)	36.5 µM
O=C(c1ccco1)N1CCN(c2nc(C3CC3)nc3sc4c(c23)CCCC4)CC1	12.7 µM
